Source: patent US5627173A, “Phosphonoacetic acid derivatives and their use for treating degenerative joint disorders” (Hoechst Aktiengesellschaft, priority 1995, dated 1997)
≈ marks a conversion by molar mass, not a printed value.

What was measured:
matrix metalloproteases = assay: Inhibition of matrix metalloproteases (MMP from rabbit synoviocytes HIG-82, fluorescent substrate); type: biochemical
Description: After confluent cell growth, the MMP expression was induced in the serum-free 3F12 HAM medium by adding 0.3 μmol/l phorbol 12-myristate 13-acetate. The supernatant was removed after incubating at 37° C. for 20 hours.
Activation of the MMP: The supernatant was activated with trypsin (5 μg/ml). After 15 minutes at 37° C., the activation was stopped by adding 1 mmol/l phenylmethylsulfonyl fluoride (PMSF) and incubating for a further 10 minutes. The total volume of the mixture was 210 μl.
The test substance was added in the stated concentration (see table). […] The reaction was stopped after 30 minutes by adding 10 mmol/l EDTA. The total-volume of the mixture was 320 μl . The parameters measured were the fluorescence intensities at […]. In order to take account of the possible intrinsic fluorescence of the test substances, the fluorescence intensities from parallel measurements without substrate were subtracted from the measurements with substrate. All the steps took place at 20° C.

rat liver microsomes = assay: Inhibition of microsomal lipid peroxidation; type: biochemical; conditions: 37° C., 10 minutes
Description: Obtaining rat liver microsomes: All steps were carried out at 0° C. The liver from a rat was thoroughly rinsed with 0.9% NaCl solution to remove all the hemoglobin. The liver wascut into pieces and then treated in a Potter in 10 mM Tris/HCl pH 7.4; 250 mM sucrose (10 ml of buffer/g of liver). The first centrifugation was at 600 x g for 55 minutes to remove cell detritus. The supernatant was then centrifuged at 12000 x g for 10 minutes and was adjusted with solid CaCI2 (117.6 mg/100 ml) to a concentration of 8 mM. A microsome pellet was obtained by centrifugation at 25000 x g (15 minutes). This pellet was ohomogenized in the same volume of buffer (10 mM Tris/BCI pH 7.4; 150 mMKCl) and again centrifuged at 25000 x g for 15 minutes.
Peroxidation by rat liver microsomes: A test mixture consisted of 20 μl of microsomes (100 mg/ml), see above, dissolved in a buffer (250 mM Tris/HCI pB 6.6; 750 mMKCl), 10 iL1 of 50 mM MgCI2, 10 μl of 200 mM isocitric acid, 10 μl of 4 mM NADP (3.028 mg/ml in water), 10 μl of 25 mM niacinamide, 10 μl of isocitrate dehydrogenase (Boehringer, diluted 1:100) and 20 μl of water or test substance. The reaction was started with 10 μl of 0.25 mM FeSO4. […] The malonaldehyde which was formed was converted by adding 500 μl of 0.67 percent thiobarbituric acid and incubating at 90° C. for 30 min into a pink-colored compound which was measured in a photometer at 532 nm. […]

interleukin-1β = assay: Inhibition of release of interleukin-1β from human mononuclear cells; type: cell-based; conditions: 10 .parallel.mol/l (so in the source), IL-1β, LPS-stimulated, 20 to 22 hours
Description: Obtaining mononuclear cells from human blood: 10 ml of human blood stabilized with 1 ml of 3.8 percent sodium citrate solution were diluted with 10 ml of PM16 (Serra, Heidelberg), and an underlayer of 15 ml of Lymphoprep (Dr. Molter GmbH, Heidelberg) was introduced. The samples were centrifuged at 400 x g (Minifuge 2 Heraeus, Osterode) at room temperature for 40 minutes. The mononuclear cells were visible as a white ring at the Lymphoprep/plasma boundary. This ring was cautiously removed with a syringe, diluted with the same volume of PM16 and centrifuged at 400 x g for 10 minutes. The precipitate was washed with ^~ 10 ml of RPMI1640 (+300 mg/I L-glutamine, Gibco, Eggenstein). After the cells had been suspended in ^~ 1 ml of RPMI1640 (+300 mg/I L-glutamine, +25 mM HEPES, +100 μg/ml streptomycin, +100 μg/ml penicillin), the cell density was determined with a JT Coulter Counter (Coulter Diagnostics) and adjusted to 5.10^6 /ml. 90% of the resulting cells were lymphocytes and 10% were monocytes.
Inhibition of release of interleukin-1β: 230 μl of mononuclear cells were incubated with 10 μl of test substance (10 μM in dimethyl sulfoxide (DMSO)/water=1/10) and 10 μl of a lipopolysaccharide solution (500 μg dissolved in 1 ml of DMSO and diluted 1/10 with water before starting the test, from Salmonella abortus equi, (Sigma, Deisenhofen) at 37° C., 5% CO2 for 20 to 22 hours. The samples were cooled to 0° C. in an ice bath and centrifuged in a Sigma centrifuge (2 minutes; 2000 revolutions per minute (rpm)). Aliquots of the supernatant were determined using a commercially available ELISA 5(Biermann, Bad Nauheim).
All active substances were tested at a concentration of 10 .parallel.mol/l. IL-1β release was tested in each case.

[1] = tested on: isolated guinea pig trachea; assay: Antagonism of KCl-induced contraction of the isolated guinea pig trachea; conditions: Cavia porcellus; agonist KCl; read-out: Anticontractile effect (trachea), concentration range needed to bring about a dilatation corresponding to the ED50 range
Text: (§1) The compounds according to the invention are used as antagonists of the contraction of various parts of organs, in this case the isolated guinea pig trachea. The agonists used were KCl, PGF2a, calcium ionophore A23187 and substance P:
Products with a non-specific effect generally show a spasmolytic effect with respect to all agonists. KCI is representative here of non-specific, receptor-independent contraction because KCl-induced contractions are produced predominantly physically, that is to say by increasing the K+ concentration in the outside medium, and change the resting potential of the cell.
(§2) The guinea pigs were sacrificed by lethal anesthesia with laughing gas. The trachea was dissected out over its entire length and cut into 15 individual cartilage rings. In each case five rings were connected together to form a chain and fixed in an organ bath under a preload of 3 g. After an equilibration period of 45 minutes, a contraction was induced with the agonist. Cumulative addition of the antagonist (test product) took place at the plateau 5 of the maximum. Evaluation took place as % change in strength based on the maximum contraction. The test was carried out at 37° C., and the physiological nutrient solution used was a modified Krebs-Henseleit solution through which 95% by volume 02 and 5% by volume CO2 was bubbled.
(§3) Test animals: Albino guinea pigs (102), weight: 200 to 300 g, male or female
(§4) Composition of the organ bath (nutrient solution):
(§5) Vehicle: Double-distilled water, ethanol or isopropanol; Administration: into the organ bath Number of administrations: cumulative, single doses for SP

[2] = tested on: isolated guinea pig trachea; assay: Antagonism of PGF2α-induced contraction of the isolated guinea pig trachea; conditions: Cavia porcellus; agonist PGF2α; read-out: Anticontractile effect (trachea), concentration range needed to bring about a dilatation corresponding to the ED50 range
Text: as §1
Inhibition of contractions induced by this cyclooxygenase product is possible only by competitive antagonism at the receptor or of the downstream signal pathway.
as §2, §3, §4, §5

[3] = tested on: isolated guinea pig trachea; assay: Antagonism of calcium ionophore A23187-induced contraction of the isolated guinea pig trachea; conditions: Cavia porcellus; agonist Ca ionophore A23187; read-out: Anticontractile effect (trachea), concentration range needed to bring about a dilatation corresponding to the ED50 range
Text: as §1
c) Calcium ionophore A23187 (Calbiochem, Bad Soden) brings about, due to increased uptake of calcium ions, an activation of all calcium-dependent signal cascades in the cell.
as §2, §3, §4, §5

[4] = tested on: isolated guinea pig trachea; assay: Antagonism of substance P-induced contraction of the isolated guinea pig trachea; conditions: Cavia porcellus; agonist substance P; read-out: Anticontractile effect (trachea), concentration range needed to bring about a dilatation corresponding to the ED50 range
Text: as §1
Antagonism is possible on the one hand by specific receptor antagonists, and on the other hand by inhibition of the downstream signal pathway.
as §2, §3, §4, §5

[5] = tested on: isolated strips of guinea pig lung; assay: Antagonism of LTD4-induced contraction of isolated strips of guinea pig lung; conditions: Cavia porcellus; agonist LTD4; read-out: Anticontractile effect (lung), concentration range corresponding to the IC50 value
Text: (§6) The test was based on the same principle as the test indicated in Pharmacological Test 5; however, strips of lung were used in this case.
(§7) The guinea pig was sacrificed under anesthesia with laughing gas. The entire lung tract was cut out starting from the trachea. The lobes of the lungs were cut in circular fashion to produce strips about 3 mm wide. The strips of the upper lobes were divided up in order to obtain a total of six strips of approximately equal size. The strips were suspended in the organ baths under a preload of 4 g. Modified Krebs-Henseleit solutions were used as nutrient solution. When platelet activating factor (PAF) was used as agonist, the composition of this solution corresponded to that for the agonist SP in Pharmacological Test 5; a Krebs-Henseleit solution as in the case of the agonist KCI (Pharm. Test 5) was used for the agonist LTD4. 95% by volume 02, 5% by volume CO2 was bubbled through the bath, and the bath temperature was 37° C. The test is carried out by a therapeutic/cumulative method with dose levels of 1, 3, 6 and 10 μg/ml.
(§8) The test animals, organ bath, vehicle, mode of administration corresponded to that stated for Pharmacological Test 5.

[6] = tested on: isolated strips of guinea pig lung; assay: Antagonism of PAF-induced contraction of isolated strips of guinea pig lung; conditions: Cavia porcellus; agonist PAF; read-out: Anticontractile effect (lung), concentration range corresponding to the IC50 value
Text: as §6, §7, §8

RAW 264.7 cells [7] = assay: Release of tumor necrosis factor α from RAW 264.7 cells; type: cell-based; conditions: Mus musculus, RAW264.7, LPS, read-out: inhibition of TNFα formation compared with an untreated control
Description: (§9) Culture medium: DMEM+10% FCS+penicillin/streptomycin (50 U/SO μg/ml)
(§10) Culture conditions: 37° C., 10% CO2
(§11) Culture dishes: 24-well dishes
(§12) In each case 10^6 cells/ml/well were incubated for 24 hours (h)
(§13) Addition of 10 μl of test substance (=100 μM in the test, dissolved in double-distilled water)
Addition of 50 μl of lipopolysaccharide (LPS) from E. coli (=10 pg/ml in the test, dissolved in culture medium) […]
Tumor necrosis factor α was determined using a Factortest X mouse TNFα ELISA kit from Genzyme (R(1sselsheim, Geromany), Order no. 80-2802-00.

RAW 264.7 cells [8] = assay: Release of substance P from RAW 264.7 cells; type: cell-based; conditions: Mus musculus, RAW264.7, stimulated by 50 ng of LPS for 4 hours, read-out: inhibition of substance P production
Description: as §9, §10, §11, §12, §13
Release of substance P took place as described for TNFα, but the cells were stimulated by 50 ng of LPS for 4 hours. Substance P was determined using a substance P RIA test kit from Peninsula Laboratories (Belmont, USA) Test no. RIK-7451.

phosphodiesterase III = assay: Inhibition of phosphodiesterase III activity; type: biochemical; conditions: 100 μM
Description: The test was carried out with the phosphodiesterase of Boehringer Mannheim (Mannheim, Germany), Order no. 108 243 by the method of T. SAEKI, I. SAITO, Biochem. Pharm. 46, No. 5, […], pages 833-839.

Wistar-Lewis rats = assay: Adjuvant arthritis; type: in vivo; conditions: 12.6 mg/kg intraperitoneal, twice a day for 18 days
Description: The investigations were carried out as described in EP 50 42 740.

Row | Structure (SMILES) | Inhibition of MMP, Inhibition (%) (matrix metalloproteases; 10 μM) | Inhibition of MMP, Inhibition (%) (matrix metalloproteases; 30 μM) | Inhibition of MMP, Inhibition (%) (matrix metalloproteases; 100 μM) | IC50 (rat liver microsomes) [nM] | inhibition at 10 µM (interleukin-1β) [%] | EC50 [1] [µg/mL] | EC50 [2] [µg/mL] | EC50 [3] [µg/mL] | EC50 [4] [µg/mL] | IC50 [5] [µg/mL] | IC50 [6] [µg/mL] | inhibition at 100 µM (RAW 264.7 cells [7]; incubation for 2.5 hours) [%] | inhibition at 100 µM (RAW 264.7 cells [8]) [%] | inhibition of enzyme activity (phosphodiesterase III) (phosphodiesterase III) [%] | inhibition of the increase in the paw volume compared with an untreated control group (Wistar-Lewis rats) [%] | inhibition at 100 µM (RAW 264.7 cells [7]; incubation for 4 h) [%]
1 | CCOC(=O)C(=Cc1ccc(O)c(O)c1)P(=O)(OCC)OCC [Compound 47, Ethyl 2-(diethoxyphosphinyl)-3-(3,4-dihydroxyphenyl) propenoate] | 13 | 24 | 55 | 2100 | 80 |  |  |  |  |  |  |  |  |  |  | 
2 | CCOP(=O)(OCC)/C(C#N)=C\c1ccc(OC)c(OC)c1 [Compound 37, Z- and E-2-(diethoxyphosphinyl)-3-(3,4-dimethoxyphenyl) acrylonitrile] |  |  |  |  |  | ~10 (≈ 30.7 µM) | ~3 (≈ 9.22 µM) | ~1 (≈ 3.07 µM) | ~3 (≈ 9.22 µM) | 0.1 to 0.3 (≈ 0.307 to 0.922 µM) | 1 to 3 (≈ 3.07 to 9.22 µM) | 55 | 100 | 39 |  | 
3 | CCOP(=O)(OCC)/C(C#N)=C/c1ccc(OC)c(OC)c1 [Compound 38, Z- and E-2-(diethoxyphosphinyl)-3-(3,4-dimethoxyphenyl) acrylonitrile] |  |  |  |  |  | > 10 | 1 to 3 (≈ 3.07 to 9.22 µM) | ~3 (≈ 9.22 µM) | 3 to 10 (≈ 9.22 to 30.7 µM) | ~1 (≈ 3.07 µM) | < 0.1 |  | 100 |  | 98 | 16
